Two compounds from publication PMC9680484, “Synthesis, Biophysical Interaction of DNA/BSA, Equilibrium and Stopped-Flow Kinetic Studies, and Biological Evaluation of bis(2-Picolyl)amine-Based Nickel(II) Complex” (Biomimetics, 2022) can be followed below.

“And” between values parts separate entries of the source, which are not always exact repeats. Equal entries are not always repeated. Where two headings read alike, the source gives them in different places.

The target in experiment [1] is BSA (Bos taurus, UniProt P02769). Briefly: Stopped-flow kinetics of BSA binding. Also on record: species or system bovine. The conditions noted are these: for ΔG1: ΔGbind = RT·ln(Kd); for K2 (2nd step): irreversible step for BPA. The protocol:
(§1) The kinetics of protein and DNA binding was measured using an Applied KinetAsyst SF-61DX2 stopped-flow instrument. At 25 °C, equal volumes of compounds against protein and DNA solutions were rapidly mixed in the stopped-flow instrument. The binding reactions were studied using a 10-fold excess of the ligand BPA and NiBPA under pseudo-first-order conditions. For each experimental condition, all recorded rate constants were taken into account, from which the mean values of at least three independent kinetic runs were calculated.
(§2) Because many medicines with lower cellular toxicity have a slow DNA dissociation rate, several factors, such as the strength of binding and the drug’s affinity for DNA, as well as the kinetic stability of DNA-drug adducts, may contribute to antitumor effectiveness. The stopped-flow technique was used to study in-vitro protein/DNA binding to BPA and propose a mechanism in order to obtain such information. The kinetic traces were recorded at 265 nm within 100 s (BPA) and 5 s (NiBPA), respectively, to capture the interaction process with BSA. […] In the case of ct-DNA interaction, the kinetic traces were recorded at 290 nm, and both BPA and NiBPA followed a similar pattern since kinetic traces for BPA and NiBPA were collected within 100 s, covering the entire interaction process. […] Over the concentration range of BPA and NiBPA, the study of kinetic traces performed under pseudo-first-order conditions may be fitted to two kinetic phases (Figure 7) evaluated using the following Equation (3):(3) A=a1e^−kobs1t1+a2e^−kobs2t2+A0
The interaction process involves at least two steps, and the stopped-flow records the two kinetic phases as a fast binding (rate constant kobs1) followed by a slow first-order isomerization process (rate constant kobs2). […] Both kon and koff were used to calculate the equilibrium association constants Kaff [kon/koff M^−1] and the equilibrium dissociation constants Kd [koff/kon M].
The difference between the free energy, G, of BSA molecules alone in the solution and when bound together is related to the equilibrium dissociation constant, Kd1. Equation (4) gives the binding free energy change Gbind. (4) ΔGbind=RT·ln(Kd)

Experiment [2] concerns ct-DNA. The experiment is described as follows: Stopped-flow kinetics of ct-DNA binding. The note with it: for Ka1 (k1/k−1) / Kd: 1st step; for Ka1 (k1/k−1) / Kd / K2 (2nd step) / Ka2 (k2/k−2) / k−2 / k1 (1st step, second-order association constant) / k−1 (1st step, first-order dissociation constant): 25 °C; for Kd: read-out: Kd1 (k−1/k1); for K2 (2nd step) / Ka2 (k2/k−2) / k−2: 2nd step. As to the method:
as §1, §2
The interaction process involves at least two steps, and the stopped-flow records the two kinetic phases as a fast binding (rate constant kobs1) followed by a slow first-order isomerization process (rate constant kobs2). […] Both kon and koff were used to calculate the equilibrium association constants Kaff [kon/koff M^−1] and the equilibrium dissociation constants Kd [koff/kon M]. […]

As to `c1ccc(CNCc2ccccn2)nc1` [BPA, bis(2-picolyl)amine], in experiment [1] (BSA, 1st step, 25 °C), the “Ka1 (k1/k−1)” value is 73.5 M⁻¹. Also, the Kd in experiment [1] (BSA, 1st step, 25 °C, read-out: Kd1 (k−1/k1)) came to 13.6 mM. Also, in experiment [1] (BSA, 1st step), the ΔG1 was -10.6 kJ/mol. Moreover, the “K2 (irreversible 2nd step)” value in experiment [1] (BSA, 2nd step) came to 0.82 M⁻¹. Moreover, the “K2 (2nd step)” value in experiment [1] (BSA, 2nd step, 25 °C) is “Irreversible step with K2 = 0.82 ± 0.08 M^−1s^−1”. For the same compound, in experiment [1] (BSA, 2nd step, irreversibility), the “k−2” value is “≈ 0”. Moreover, the “k−1 (1st step, first-order dissociation constant)” value in experiment [1] (BSA, 25 °C) turned out to be 0.17 ± 0.0 s⁻¹. Besides, the kon in experiment [1] (bovine, read-out: k1 (1st step, second-order association constant)) turned out to be 12.5 ± 1.1 M⁻¹ s⁻¹. Further, in experiment [2], the “Ka1 (k1/k−1)” value was 40.0 M⁻¹ and 40 M⁻¹; the Kd was 25.6 mM; the “K2 (2nd step)” value amounted to 0.29 ± 0.01 M⁻¹ s⁻¹; the “Ka2 (k2/k−2)” value was 47.5 M⁻¹. In experiment [2], the “k−2” value is recorded as 6.1 ± 0.3 10^−3s^−1; the “k1 (1st step, second-order association constant)” value was found to be 27.0 ± 2.5 M⁻¹ s⁻¹; the “k−1 (1st step, first-order dissociation constant)” value stood at 0.69 ± 0.1 s⁻¹; the “Ka (overall binding)” value was determined as 1899 M⁻¹.
On to `O.[Cl][Ni][Cl].c1ccc(CNCc2ccccn2)nc1` [NiBPA, [(BPA)NiCl2(H2O)]], for which the “Ka1 (k1/k−1)” value in experiment [1] (BSA, 1st step, 25 °C) turned out to be 7.3 M⁻¹. The ΔG1 in experiment [1] (BSA, 1st step) is -5.1 kJ/mol. This compound came in with a ΔG2 in experiment [1] (BSA, 2nd step) of −8.3 kJmol^−1. In experiment [1] (BSA, 2nd step, 25 °C), the “k−2” value is given as 620 ± 6 10^−3s^−1 and the “K2 (2nd step)” value amounted to 2.0 ± 0.2 M⁻¹ s⁻¹. This compound also gave a Ka2 in experiment [1] (BSA, 2nd step, 25 °C, listed as 1) of 3.2 M⁻¹. Also, in experiment [1] (BSA, 25 °C), the “k1 (1st step, second-order association constant)” value is 53.6 ± 9.0 M⁻¹ s⁻¹ and the “k−1 (1st step, first-order dissociation constant)” value stood at 7.3 ± 0.3 s⁻¹. Besides, in experiment [1] (BSA, overall), the “Ka (overall binding)” value turned out to be 30.3 M⁻¹ and the “ΔG (overall reaction)” value is given as −8.4 kJmol^−1. Also, the Kd in experiment [1] (BSA, overall, read-out: Kd (overall binding)) is 34 mM. Besides, in experiment [1] (BSA, overall, read-out: Kd (overall reaction)), the Kd was 32.3 mM. In experiment [2], the “Ka1 (k1/k−1)” value came out at 53.6 M⁻¹; the Kd is 19 mM; the “K2 (2nd step)” value was determined as 0.23 ± 0.01 M⁻¹ s⁻¹; the “Ka2 (k2/k−2)” value is 39 M⁻¹ and 39.0 M⁻¹. In experiment [2], the “k−2” value is reported as 5.9 ± 0.5 10^−3s^−1; the “k1 (1st step, second-order association constant)” value came to 19.3 ± 2.3 M⁻¹ s⁻¹; the “k−1 (1st step, first-order dissociation constant)” value is 0.36 ± 0.1 s⁻¹; the “Ka (overall binding)” value amounted to 2077 M⁻¹.
